{"source": "patent US10683276B2", "about": "“Heterocycle-substituted bicyclic azole pesticides” (FMC Corporation, priority 2015, dated 2020)", "assay_type_in_all_cases": "in vivo", "key": {"[1]": {"system": "diamondback moth (Plutella xylostella (L.))", "test": "Test A: control of diamondback moth, foliar spray on mustard plant", "settings": "sprayed at 250 ppm; neonate larvae on mustard plant; assessed after 6 days", "method": "(§1) Test compounds were formulated using a solution containing 10% acetone, 90% water and 300 ppm X-77® Spreader Lo-Foam Formula non-ionic surfactant containing alkylarylpolyoxyethylene, free fatty acids, glycols and isopropanol (Loveland Industries, Inc. Greeley, Colo., USA). The formulated compounds were applied in 1 mL of liquid through a SUJ2 atomizer nozzle with ⅛ JJ custom body (Spraying Systems Co. Wheaton, Ill., USA) positioned 1.27 cm (0.5 inches) above the top of each test unit. Test compounds were sprayed at the rates indicated, and each test was replicated three times.\nFor evaluating control of diamondback moth (Plutella xylostella (L.)) the test unit consisted of a small open container with a 12-14-day-old mustard plant inside. This was pre-infested with ˜50 neonate larvae that were dispensed into the test unit via corn cob grits using an inoculator. The larvae moved onto the test plant after being dispensed into the test unit.\nTest compounds were formulated and sprayed at 250 and/or 50 ppm. After spraying of the formulated test compound, each test unit was allowed to dry for 1 hour and then a black, screened cap was placed on top. The test units were held for 6 days in a growth chamber at 25° C. and 70% relative humidity. Plant feeding damage was then visually assessed based on foliage consumed, and larvae were assessed for mortality."}, "[2]": {"system": "cotton melon aphid (Aphis gossypii (Glover))", "test": "Test D: control of cotton melon aphid, spray on cotton plant", "settings": "144 h, sprayed at 50 ppm, assessed after 6 days", "method": "as §1\nFor evaluating control of cotton melon aphid (Aphis gossypii (Glover)) through contact and/or systemic means, the test unit consisted of a small open container with a 6-7-day-old cotton plant inside. This was pre-infested with 30-40 insects on a piece of leaf according to the cut-leaf method, and the soil of the test unit was covered with a layer of sand.\nTest compounds were formulated and sprayed at 250 and/or 50 ppm. After spraying, the test units were maintained in a growth chamber for 6 days at 19° C. and 70% relative humidity. Each test unit was then visually assessed for insect mortality."}, "[3]": {"system": "green peach aphid (Myzus persicae (Sulzer))", "test": "Test C: control of green peach aphid, spray on radish plant", "settings": "144 h, sprayed at 50 ppm, assessed after 6 days", "method": "as §1\nFor evaluating control of green peach aphid (Myzus persicae (Sulzer)) through contact and/or systemic means, the test unit consisted of a small open container with a 12-15-day-old radish plant inside. This was pre-infested by placing on a leaf of the test plant 30-40 aphids on a piece of leaf excised from a culture plant (cut-leaf method). The aphids moved onto the test plant as the leaf piece desiccated. After pre-infestation, the soil of the test unit was covered with a layer of sand.\nTest compounds were formulated and sprayed at 250 and/or 50 ppm. After spraying of the formulated test compound, each test unit was allowed to dry for 1 hour and then a black, screened cap was placed on top. […] Each test unit was then visually assessed for insect mortality."}, "[4]": {"system": "sweetpotato whitefly (Bemisia tabaci (Gennadius))", "test": "Test E: control of sweetpotato whitefly, spray on cotton plant", "settings": "sprayed at 50 ppm; eggs on cotton plant; assessed after 13 days", "method": "as §1\nFor evaluating control of the sweetpotato whitefly (Bemisia tabaci (Gennadius)) through contact and/or systemic means, the test unit consisted of a small open container with a 12-14-day-old cotton plant inside. Prior to the spray application, both cotyledons were removed from the plant, leaving one true leaf for the assay. Adult whiteflies were allowed to lay eggs on the plant and then were removed from the test unit. Cotton plants infested with at least 15 eggs were submitted to the test for spraying.\nTest compounds were formulated and sprayed at 250 and/or 50 ppm. After spraying, the test units were allowed to dry for 1 hour. […] Each test unit was then visually assessed for insect mortality."}, "[5]": {"system": "Western Flower Thrips (Frankliniellla occidentalis (Pergande))", "test": "Test F: control of Western Flower Thrips, spray on Soleil bean plant", "settings": "sprayed at 250 ppm; adult thrips on Soleil bean plant; held for 6 days", "method": "For evaluating control of the Western Flower Thrips (Frankliniellla occidentalis (Pergande)) through contact and/or systemic means, the test unit consisted of a small open container with a 5-7-day-old Soleil bean plant inside.\nTest compounds were formulated and sprayed at 250 and/or 50 ppm. After spraying, the test units were allowed to dry for 1 hour, and then 22-27 adult thrips were added to each unit. A black, screened cap was placed on top, and the test units were held for 6 days at 25° C. and 45-55% relative humidity."}}}
{"compound": "CN(C)C(=O)C(C)(C)NC(=O)C(C)(C)NC(=O)c1cccc2nn(-c3cccnc3)cc12", "note": "[Compound 2]", "values": [{"measurement": "control efficacy (40% or less feeding damage and/or 100% mortality)", "setting": "[1]", "value": "very good to excellent levels of control efficacy"}]}
{"compound": "CC(C)(NC(=O)c1cccc2nn(-c3cccnc3)cc12)C(=O)NCc1ccccc1", "note": "[Compound 25, N-[1,1-dimethyl-2-oxo-2-[(phenylmethyl)amino]ethyl]-2-(3-pyridinyl)-2H-indazole-4-carboxamide]", "values": [{"measurement": "mortality at 50 ppm", "setting": "[2]", "value": "≥ 80", "unit": "%"}, {"measurement": "mortality at 50 ppm", "setting": "[3]", "value": "≥ 80", "unit": "%"}]}
{"compound": "CC(C)(NC(=O)c1cccc2nn(-c3cccnc3)cc12)C(=O)NCc1ccccn1", "note": "[Compound 26]", "values": [{"measurement": "mortality", "setting": "[4]", "value": "at least 50%"}]}
{"compound": "CC(C)(NC(=O)c1cccc2nn(-c3cccnc3)cc12)C(=O)NC1CCC1", "note": "[Compound 43]", "values": [{"measurement": "control efficacy (30% or less plant damage and/or 100% mortality)", "setting": "[5]", "value": "very good to excellent levels of control efficacy"}]}
{"compound": "CON(C)C(=O)C(C)(C)NC(=O)c1cccc2nn(-c3cccnc3)cc12", "note": "[Compound 47]", "values": [{"measurement": "control efficacy (30% or less plant damage and/or 100% mortality)", "setting": "[5]", "value": "very good to excellent levels of control efficacy"}]}
{"compound": "CONC(=O)C(C)(C)NC(=O)c1cccc2nn(-c3cccnc3)cc12", "note": "[Compound 48]", "values": [{"measurement": "control efficacy (30% or less plant damage and/or 100% mortality)", "setting": "[5]", "value": "very good to excellent levels of control efficacy"}]}
